Here are results for 31 molecules from US8614327B2 (Vertex Pharmaceuticals Incorporated, priority 2004, dated 2013).

Molecules are shown by their SMILES. Some results are limits rather than exact numbers.

In the test the target is T1, ΔF508-CFTR (Homo sapiens, UniProt P13569, DEL508-508).
T1 construct: expressed in transfected cells
Kind of test: Membrane potential optical (FRET/VIPR) assay, identification of potentiator compounds. Format: cell-based. Particulars: Table 3, assay not given; for % Activity: relative efficacy. The text has this:
I) Membrane Potential Optical Methods for Assaying ΔF508-CFTR Modulation Properties of Compounds The optical membrane potential assay utilized voltage-sensitive FRET sensors described by Gonzalez and Tsien (See, Gonzalez, J. E. and R. Y. Tsien (1995) “Voltage sensing by fluorescence resonance energy transfer in single cells” Biophys J 69(4): 1272-80, and Gonzalez, J. E. and R. Y. Tsien (1997) “Improved indicators of cell membrane potential that use fluorescence resonance energy transfer” Chem Biol 4(4): 269-77) in combination with instrumentation for measuring fluorescence changes such as the Voltage/Ion Probe Reader (VIPR) (See, […]. Oades, et al. (1999) “Cell-based assays and instrumentation for screening ion-channel targets” Drug Discov Today 4(9): 431-439). These voltage sensitive assays are based on the change in fluorescence resonant energy transfer (FRET) between the membrane-soluble, voltage-sensitive dye, DiSBAC2(3), and a fluorescent phospholipid, CC2-DMPE, which is attached to the outer leaflet of the plasma membrane and acts as a FRET donor. Changes in membrane potential (Vm) cause the negatively charged DiSBAC2(3) to redistribute across the plasma membrane and the amount of energy transfer from CC2-DMPE changes accordingly. The changes in fluorescence emission were monitored using VIPR which is an integrated liquid handler and fluorescent detector designed to conduct cell-based screens in 96- or 384-well microtiter plates. To identify potentiators of ΔF508-CFTR, a double-addition HTS assay format was developed. During the first addition, a Cl^--free medium with or without test compound was added to each well. […] (in mM) NaCl 160, KCl 4.5, CaCl2 2, MgCl2 1, HEPES 10, pH 7.4 with NaOH. • Chloride-free bath solution: Chloride salts in Bath Solution #1 are substituted with gluconate salts. • CC2-DMPE: Prepared as a 10 mM stock solution in DMSO and stored at -20° C. • DiSBAC2(3): Prepared as a 10 mM stock in DMSO and stored at -20° C. NIH3T3 mouse fibroblasts stably expressing ΔF508-CFTR are used for optical measurements of membrane potential. […] For all optical assays, the cells were seeded at 30,000/well in 384-well matrigel-coated plates and cultured for 2 hrs at 37° C. before culturing at 27° C. for 24 hrs. for the potentiator assay.

T1 sequence (P13569 with tags, fused parts or gaps DEL508-508): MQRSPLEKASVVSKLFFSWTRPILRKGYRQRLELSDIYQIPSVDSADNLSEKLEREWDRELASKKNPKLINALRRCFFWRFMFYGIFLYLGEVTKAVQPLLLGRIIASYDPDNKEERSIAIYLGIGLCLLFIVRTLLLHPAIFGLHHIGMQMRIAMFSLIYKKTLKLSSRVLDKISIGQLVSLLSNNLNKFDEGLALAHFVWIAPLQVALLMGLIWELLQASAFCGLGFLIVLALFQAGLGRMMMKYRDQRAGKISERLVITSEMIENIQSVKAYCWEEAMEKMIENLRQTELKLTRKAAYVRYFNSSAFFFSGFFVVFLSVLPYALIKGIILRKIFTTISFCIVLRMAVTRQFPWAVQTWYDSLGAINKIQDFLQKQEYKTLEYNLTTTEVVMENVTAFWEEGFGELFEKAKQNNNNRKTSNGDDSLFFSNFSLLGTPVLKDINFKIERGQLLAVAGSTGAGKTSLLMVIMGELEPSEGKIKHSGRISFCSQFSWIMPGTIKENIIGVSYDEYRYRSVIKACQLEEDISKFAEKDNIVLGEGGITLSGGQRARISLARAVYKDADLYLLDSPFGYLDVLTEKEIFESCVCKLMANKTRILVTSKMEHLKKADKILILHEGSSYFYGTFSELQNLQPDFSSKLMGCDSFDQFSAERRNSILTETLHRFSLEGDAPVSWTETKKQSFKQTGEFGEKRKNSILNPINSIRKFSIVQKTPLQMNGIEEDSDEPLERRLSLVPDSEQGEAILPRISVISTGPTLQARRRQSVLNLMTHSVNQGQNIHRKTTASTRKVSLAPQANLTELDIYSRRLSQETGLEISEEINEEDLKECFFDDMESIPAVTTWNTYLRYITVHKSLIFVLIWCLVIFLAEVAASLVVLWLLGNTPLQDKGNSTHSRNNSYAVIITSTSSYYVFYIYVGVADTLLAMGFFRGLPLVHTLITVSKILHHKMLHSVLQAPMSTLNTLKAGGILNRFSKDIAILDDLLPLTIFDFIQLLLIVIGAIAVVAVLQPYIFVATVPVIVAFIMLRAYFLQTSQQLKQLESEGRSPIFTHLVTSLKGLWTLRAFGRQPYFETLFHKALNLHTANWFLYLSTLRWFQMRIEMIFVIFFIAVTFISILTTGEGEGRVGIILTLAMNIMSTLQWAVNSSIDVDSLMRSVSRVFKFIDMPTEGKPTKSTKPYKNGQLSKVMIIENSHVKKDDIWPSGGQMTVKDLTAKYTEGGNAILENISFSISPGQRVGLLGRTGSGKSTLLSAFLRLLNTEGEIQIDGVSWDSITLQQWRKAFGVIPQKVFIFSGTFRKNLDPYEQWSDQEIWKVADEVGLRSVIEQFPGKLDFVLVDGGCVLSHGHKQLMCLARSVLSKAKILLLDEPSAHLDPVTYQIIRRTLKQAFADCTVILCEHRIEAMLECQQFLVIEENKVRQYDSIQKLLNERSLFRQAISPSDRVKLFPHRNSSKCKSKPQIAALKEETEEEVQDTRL

For `Cc1cccc(NC(=O)c2c[nH]c3ccccc3c2=O)c1C` [Compound 61, N-(2,3-dimethylphenyl)-4-oxo-1H-quinoline-3-carboxamide], the EC50 was under 10 µM and the “% Activity” value is “++ (between 25% to 100%)”.

`O=C(Nc1cccc(OC(F)(F)F)c1)c1c[nH]c2ccccc2c1=O` [Compound 62, 4-oxo-N-[3-(trifluoromethoxy)phenyl]-1H-quinoline-3-carboxamide]: the EC50 was under 10 µM and the “% Activity” value is “++ (between 25% to 100%)”.

Regarding `O=C(Nc1ccccc1-c1ccc(F)cc1F)c1c[nH]c2ccccc2c1=O` [Compound 63, N-[2-(2,4-difluorophenyl)phenyl]-4-oxo-1H-quinoline-3-carboxamide], the EC50 was under 10 µM and the “% Activity” value was “++ (between 25% to 100%)”.

With `O=C(Nc1ccc2[nH]c(=O)[nH]c2c1)c1c[nH]c2ccccc2c1=O` [Compound 64, 4-oxo-N-(2-oxo-1,3-dihydrobenzoimidazol-5-yl)-1H-quinoline-3-carboxamide], the EC50 lay within 25 to 60 µM and the “% Activity” value is “+ (<25%)”.

Regarding `O=C(Nc1cc2[nH]ccc2cc1-c1cccnc1)c1c[nH]c2ccccc2c1=O` [Compound 65, 4-oxo-N-[5-(3-pyridyl)-1H-indol-6-yl]-1H-quinoline-3-carboxamide], the EC50 was under 10 µM and the “% Activity” value is recorded as “++ (between 25% to 100%)”.

On to `O=C(Nc1ccc2c(c1)OC(F)(F)O2)c1c[nH]c2ccccc2c1=O` [Compound 66, N-(2,2-difluorobenzo[1,3]dioxol-5-yl)-4-oxo-1H-quinoline-3-carboxamide], for which the EC50 lay in the range of 10 to 25 µM and the “% Activity” value was “++ (between 25% to 100%)”.

Regarding `CCc1ccc2ncc(C(=O)Nc3ccc4cc[nH]c4c3)c(O)c2c1` [Compound 67, 6-ethyl-4-hydroxy-N-(1H-indol-6-yl)quinoline-3-carboxamide], the EC50 is under 10 µM and the “% Activity” value is “++ (between 25% to 100%)”.

For `COC(=O)c1cccc(-c2ccccc2NC(=O)c2c[nH]c3ccccc3c2=O)c1` [Compound 68, 3-[2-[(4-oxo-1H-quinolin-3-yl)carbonylamino]phenyl]benzoic acid methyl ester], the “% Activity” value is on record as “++ (between 25% to 100%)”.

As to `CC(C)c1ccc(NC(=O)c2c[nH]c3ccccc3c2=O)cc1N` [Compound 69, N-(3-amino-4-isopropyl-phenyl)-4-oxo-1H-quinoline-3-carboxamide], the EC50 is under 10 µM and the “% Activity” value is “++ (between 25% to 100%)”.

Take `O=C(Nc1ccccc1-c1ccncc1)c1c[nH]c2ccccc2c1=O` [Compound 70, 4-oxo-N-[2-(4-pyridyl)phenyl]-1H-quinoline-3-carboxamide]: the “% Activity” value was “++ (between 25% to 100%)”.

`CC(C)OC(=O)c1cccc(-c2ccccc2NC(=O)c2c[nH]c3ccccc3c2=O)c1` [Compound 71, 3-[2-[(4-oxo-1H-quinolin-3-yl)carbonylamino]phenyl]benzoic acid isopropyl ester]: the EC50 is under 10 µM and the “% Activity” value is listed as “++ (between 25% to 100%)”.

Turning to `CCc1ccccc1NC(=O)c1c[nH]c2ccccc2c1=O` [Compound 72, N-(2-ethylphenyl)-4-oxo-1H-quinoline-3-carboxamide], the EC50 is under 10 µM and the “% Activity” value is “++ (between 25% to 100%)”.

`O=C(Nc1ccc2nc(-c3ccccc3)[nH]c2c1)c1c[nH]c2ccccc2c1=O` [Compound 73, 4-oxo-N-(2-phenyl-3H-benzoimidazol-5-yl)-1H-quinoline-3-carboxamide]: the concentration giving a half-maximal response (EC50) lay within 25 to 60 µM and the “% Activity” value is reported as “+ (<25%)”.

As to `O=C(Nc1ccc(C(F)(F)F)cn1)c1c[nH]c2ccccc2c1=O` [Compound 74, 4-oxo-N-[5-(trifluoromethyl)-2-pyridyl]-1H-quinoline-3-carboxamide], the EC50 was 25 to 60 µM and the “% Activity” value is reported as “+ (<25%)”.

Turning to `O=C(Nc1cnc2ccccc2c1)c1c[nH]c2ccccc2c1=O` [Compound 75, 4-oxo-N-(3-quinolyl)-1H-quinoline-3-carboxamide], the EC50 lay in the range of 25 to 60 µM and the “% Activity” value is “+ (<25%)”.

`O=C(Nc1ccccc1-c1ccc(F)c(F)c1)c1c[nH]c2ccccc2c1=O` [Compound 76, N-[2-(3,4-difluorophenyl)phenyl]-4-oxo-1H-quinoline-3-carboxamide]: the EC50 was under 10 µM and the “% Activity” value is “++ (between 25% to 100%)”.

Turning to `O=C(Nc1cc2[nH]ccc2cc1F)c1c[nH]c2ccccc2c1=O` [Compound 77, N-(5-fluoro-1H-indol-6-yl)-4-oxo-1H-quinoline-3-carboxamide], the EC50 is under 10 µM and the “% Activity” value is on record as “++ (between 25% to 100%)”.

Consider `NS(=O)(=O)c1ccccc1NC(=O)c1c[nH]c2ccccc2c1=O` [Compound 78, 4-oxo-N-(2-sulfamoylphenyl)-1H-quinoline-3-carboxamide], for which the EC50 is 25 to 60 µM and the “% Activity” value is listed as “+ (<25%)”.

On to `Cc1cc(-c2ccccc2NC(=O)c2c[nH]c3ccccc3c2=O)ccc1F` [Compound 79, N-[2-(4-fluoro-3-methyl-phenyl)phenyl]-4-oxo-1H-quinoline-3-carboxamide], for which the “% Activity” value was “++ (between 25% to 100%)”.

As to `COc1ccccc1NC(=O)c1c[nH]c2ccccc2c1=O` [Compound 80, N-(2-methoxyphenyl)-4-oxo-1H-quinoline-3-carboxamide], the EC50 is under 10 µM and the “% Activity” value was “++ (between 25% to 100%)”.

Consider `CCC(=O)Nc1cccc(NC(=O)c2c[nH]c3ccccc3c2=O)c1` [Compound 81, 4-oxo-N-(3-propionylaminophenyl)-1H-quinoline-3-carboxamide], for which the concentration for a half-maximal effect (EC50) lay in the range of 25 to 60 µM and the “% Activity” value was “+ (<25%)”.

Turning to `CCN(CC)c1ccc(NC(=O)c2c[nH]c3ccccc3c2=O)c(C)c1` [Compound 82, N-(4-diethylamino-2-methyl-phenyl)-4-oxo-1H-quinoline-3-carboxamide], the EC50 is under 10 µM and the “% Activity” value was “++ (between 25% to 100%)”.

Regarding `N#Cc1cccc(-c2ccccc2NC(=O)c2c[nH]c3ccccc3c2=O)c1` [Compound 83, N-[2-(3-cyanophenyl)phenyl]-4-oxo-1H-quinoline-3-carboxamide], the concentration giving a half-maximal response (EC50) was under 10 µM and the “% Activity” value is “++ (between 25% to 100%)”.

Regarding `Cc1ccnc(NC(=O)c2c[nH]c3ccccc3c2=O)c1` [Compound 84, N-(4-methyl-2-pyridyl)-4-oxo-1H-quinoline-3-carboxamide], the EC50 was in the range of 25 to 60 µM and the “% Activity” value is given as “+ (<25%)”.

As to `O=C(Nc1ccccc1-c1ccc(Cl)c(Cl)c1)c1c[nH]c2ccccc2c1=O` [Compound 85, N-[2-(3,4-dichlorophenyl)phenyl]-4-oxo-1H-quinoline-3-carboxamide], the EC50 was under 10 µM and the “% Activity” value is reported as “++ (between 25% to 100%)”.

`NCc1ccccc1-c1ccc(NC(=O)c2c[nH]c3ccccc3c2=O)cc1` [Compound 86, N-[4-[2-(aminomethyl)phenyl]phenyl]-4-oxo-1H-quinoline-3-carboxamide]: the EC50 lay within 10 to 25 µM and the “% Activity” value was “++ (between 25% to 100%)”.

Consider `O=C(Nc1cccc(Oc2ccccc2)c1)c1c[nH]c2ccccc2c1=O` [Compound 87, 4-oxo-N-(3-phenoxyphenyl)-1H-quinoline-3-carboxamide], for which the EC50 was under 10 µM and the “% Activity” value was “++ (between 25% to 100%)”.

For the molecule `Cc1ccc(C#N)c(NC(=O)c2c[nH]c3ccccc3c2=O)c1` [Compound 89, N-(2-cyano-5-methyl-phenyl)-4-oxo-1H-quinoline-3-carboxamide], the EC50 is 25 to 60 µM and the “% Activity” value is reported as “+ (<25%)”.

As for `CC(C)(C)c1ccccc1NC(=O)c1c[nH]c2ccccc2c1=O` [Compound 90, 4-oxo-N-(2-tert-butylphenyl)-1H-quinoline-3-carboxamide], the EC50 is under 10 µM and the “% Activity” value was “++ (between 25% to 100%)”.

In the case of `CCc1ccc(Cl)c(CC)c1NC(=O)c1c[nH]c2ccccc2c1=O` [Compound 91, N-(3-chloro-2,6-diethyl-phenyl)-4-oxo-1H-quinoline-3-carboxamide], the concentration giving a half-maximal response (EC50) was under 10 µM and the “% Activity” value is “++ (between 25% to 100%)”.

Regarding `CC1(c2cc(F)c(NC(=O)c3c[nH]c4ccccc4c3=O)cc2O)CCCCC1` [Compound 92, N-[2-fluoro-5-hydroxy-4-(1-methylcyclohexyl)-phenyl]-4-oxo-1H-quinoline-3-carboxamide], the concentration for a half-maximal effect (EC50) was under 10 µM and the “% Activity” value is reported as “++ (between 25% to 100%)”.
